Reference: patent publication US20200239530A1, “COMPOUNDS AND METHODS OF MODULATING PROTEIN DEGRADATION” (Vividion Therapeutics, Inc., priority 2017, published 2020)
Like-named read-outs stand apart in the source and are kept apart here. One block for each compound: values may come before it.

Legend:
Experiment in all cases: Cysteine liganding, probe competition
Format in all cases: binding
UniProt Q96EH8 = biological target: T1, UniProt Q96EH8 (Homo sapiens, UniProt Q96EH8); details: for inhibition at 500 µM: read-out: percent inhibition
T1 construct: Cells were resuspended in cold PBS on ice and sonicated with a probe sonicator to achieve lysis; endogenous in cells
T1 sequence (Q96EH8 1-262): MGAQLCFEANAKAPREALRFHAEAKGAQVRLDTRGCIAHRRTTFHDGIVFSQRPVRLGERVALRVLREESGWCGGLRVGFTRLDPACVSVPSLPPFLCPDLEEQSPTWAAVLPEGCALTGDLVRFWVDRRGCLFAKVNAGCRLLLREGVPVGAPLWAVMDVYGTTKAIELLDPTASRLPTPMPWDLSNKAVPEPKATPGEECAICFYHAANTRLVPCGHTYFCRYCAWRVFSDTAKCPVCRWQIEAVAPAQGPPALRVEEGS
Excerpt: (§1) The following 96-well sample prep protocol was used for sample preparation.

UniProt Q6IQ16 = biological target: T2, UniProt Q6IQ16 (Homo sapiens, UniProt Q6IQ16)
T2 construct: 200 μL of lysate containing 5 mg/ml proteome was treated with 2 μL of 100× compound stock; endogenous in cells
T2 sequence (Q6IQ16 1-392): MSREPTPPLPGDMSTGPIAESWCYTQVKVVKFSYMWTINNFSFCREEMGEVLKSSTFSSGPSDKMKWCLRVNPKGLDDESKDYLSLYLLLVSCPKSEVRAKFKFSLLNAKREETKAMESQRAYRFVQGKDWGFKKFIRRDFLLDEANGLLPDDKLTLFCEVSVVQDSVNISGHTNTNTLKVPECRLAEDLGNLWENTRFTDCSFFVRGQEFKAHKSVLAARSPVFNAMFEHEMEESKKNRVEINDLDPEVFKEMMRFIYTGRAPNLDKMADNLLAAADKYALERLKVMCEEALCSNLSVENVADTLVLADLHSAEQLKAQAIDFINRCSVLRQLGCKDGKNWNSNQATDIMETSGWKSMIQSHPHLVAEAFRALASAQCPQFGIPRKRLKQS
Excerpt: as §1

UniProt P36406 = biological target: T3, UniProt P36406 (Homo sapiens, UniProt P36406)
T3 construct: 200 μL of lysate containing 5 mg/ml proteome was treated with 2 μL of 100× compound stock; endogenous in cells
T3 sequence (P36406 whole entry, change not shown): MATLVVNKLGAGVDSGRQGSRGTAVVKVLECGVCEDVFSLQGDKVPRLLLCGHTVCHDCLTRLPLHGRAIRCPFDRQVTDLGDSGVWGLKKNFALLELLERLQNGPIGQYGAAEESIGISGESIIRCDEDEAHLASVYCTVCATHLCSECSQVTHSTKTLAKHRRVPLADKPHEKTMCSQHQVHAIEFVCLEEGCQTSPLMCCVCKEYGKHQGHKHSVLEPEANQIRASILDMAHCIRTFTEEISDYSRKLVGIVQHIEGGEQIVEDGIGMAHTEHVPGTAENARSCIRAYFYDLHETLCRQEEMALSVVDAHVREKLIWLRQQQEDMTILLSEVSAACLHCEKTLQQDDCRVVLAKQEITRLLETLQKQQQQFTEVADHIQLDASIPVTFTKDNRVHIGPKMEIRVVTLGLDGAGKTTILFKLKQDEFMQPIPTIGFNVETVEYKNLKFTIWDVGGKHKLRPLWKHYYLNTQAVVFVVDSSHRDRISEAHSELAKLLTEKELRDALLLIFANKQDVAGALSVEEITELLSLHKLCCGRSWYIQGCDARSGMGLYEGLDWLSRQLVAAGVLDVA
Excerpt: as §1

UniProt O60683 = biological target: T4, UniProt O60683 (Homo sapiens, UniProt O60683)
T4 construct: 200 μL of lysate containing 5 mg/ml proteome was treated with 2 μL of 100× compound stock; endogenous in cells
T4 sequence (O60683 whole entry, change not shown): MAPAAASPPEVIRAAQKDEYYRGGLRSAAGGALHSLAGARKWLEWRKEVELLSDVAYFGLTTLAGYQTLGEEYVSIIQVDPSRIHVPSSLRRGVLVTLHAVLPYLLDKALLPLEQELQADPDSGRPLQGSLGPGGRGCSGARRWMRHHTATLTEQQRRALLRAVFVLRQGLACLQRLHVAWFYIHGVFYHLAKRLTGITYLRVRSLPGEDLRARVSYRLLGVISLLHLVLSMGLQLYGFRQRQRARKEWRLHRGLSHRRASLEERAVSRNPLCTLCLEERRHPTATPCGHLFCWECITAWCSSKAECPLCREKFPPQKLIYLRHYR
Excerpt: as §1

UniProt O96028 = biological target: T5, UniProt O96028 (Homo sapiens, UniProt O96028); details: 500 uM
T5 construct: Cells were resuspended in cold PBS on ice and sonicated with a probe sonicator to achieve lysis; endogenous in cells
T5 sequence (O96028 whole entry, change not shown): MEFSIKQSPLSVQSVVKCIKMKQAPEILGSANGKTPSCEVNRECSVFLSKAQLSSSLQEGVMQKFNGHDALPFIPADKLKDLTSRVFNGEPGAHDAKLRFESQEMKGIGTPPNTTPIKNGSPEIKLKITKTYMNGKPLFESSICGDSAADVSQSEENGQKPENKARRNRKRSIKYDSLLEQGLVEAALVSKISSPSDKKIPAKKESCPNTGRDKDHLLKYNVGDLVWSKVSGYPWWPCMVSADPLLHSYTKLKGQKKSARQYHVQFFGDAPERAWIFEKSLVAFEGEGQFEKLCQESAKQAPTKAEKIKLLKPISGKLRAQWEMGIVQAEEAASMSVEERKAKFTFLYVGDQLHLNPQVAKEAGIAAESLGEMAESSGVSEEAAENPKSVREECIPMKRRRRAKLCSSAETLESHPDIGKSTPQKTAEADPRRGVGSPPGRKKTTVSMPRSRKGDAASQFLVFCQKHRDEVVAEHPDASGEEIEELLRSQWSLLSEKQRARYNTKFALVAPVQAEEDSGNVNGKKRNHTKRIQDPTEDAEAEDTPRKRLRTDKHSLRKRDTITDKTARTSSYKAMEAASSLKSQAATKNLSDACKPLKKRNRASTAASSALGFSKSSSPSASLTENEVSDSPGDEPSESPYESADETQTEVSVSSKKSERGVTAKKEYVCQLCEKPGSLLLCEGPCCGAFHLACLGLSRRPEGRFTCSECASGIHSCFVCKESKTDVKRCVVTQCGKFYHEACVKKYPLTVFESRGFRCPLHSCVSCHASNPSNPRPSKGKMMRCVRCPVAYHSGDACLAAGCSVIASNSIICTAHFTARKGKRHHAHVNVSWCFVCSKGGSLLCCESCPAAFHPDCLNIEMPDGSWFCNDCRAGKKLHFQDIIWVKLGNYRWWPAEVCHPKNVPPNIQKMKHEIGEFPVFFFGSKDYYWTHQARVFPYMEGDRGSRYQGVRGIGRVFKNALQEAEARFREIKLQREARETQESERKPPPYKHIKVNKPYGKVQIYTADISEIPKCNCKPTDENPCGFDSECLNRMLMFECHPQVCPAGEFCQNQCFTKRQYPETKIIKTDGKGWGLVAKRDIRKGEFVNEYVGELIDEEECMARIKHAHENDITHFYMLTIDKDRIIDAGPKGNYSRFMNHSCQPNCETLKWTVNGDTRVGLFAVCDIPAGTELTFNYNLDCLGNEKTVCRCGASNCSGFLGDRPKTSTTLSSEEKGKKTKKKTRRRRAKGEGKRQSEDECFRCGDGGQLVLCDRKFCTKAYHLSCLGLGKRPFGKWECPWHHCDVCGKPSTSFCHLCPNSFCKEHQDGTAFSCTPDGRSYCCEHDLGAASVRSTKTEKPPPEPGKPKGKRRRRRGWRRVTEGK
Excerpt: as §1

UniProt Q13829 = biological target: T6, UniProt Q13829 (Homo sapiens, UniProt Q13829)
T6 construct: 200 μL of lysate containing 5 mg/ml proteome was treated with 2 μL of 100× compound stock; endogenous in cells
T6 sequence (Q13829 1-316): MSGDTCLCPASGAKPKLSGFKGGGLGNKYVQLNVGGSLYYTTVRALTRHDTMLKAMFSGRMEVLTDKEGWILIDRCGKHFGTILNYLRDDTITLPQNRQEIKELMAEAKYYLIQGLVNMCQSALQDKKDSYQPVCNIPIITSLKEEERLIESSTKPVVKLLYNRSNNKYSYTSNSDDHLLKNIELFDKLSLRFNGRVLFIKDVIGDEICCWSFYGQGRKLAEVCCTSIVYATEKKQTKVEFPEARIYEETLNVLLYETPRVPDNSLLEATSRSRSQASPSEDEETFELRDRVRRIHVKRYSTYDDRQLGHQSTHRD
Excerpt: as §1

UniProt Q9H0A6 = biological target: T7, UniProt Q9H0A6 (Homo sapiens, UniProt Q9H0A6)
T7 construct: 200 μL of lysate containing 5 mg/ml proteome was treated with 2 μL of 100× compound stock; endogenous in cells
T7 sequence (Q9H0A6 whole entry, change not shown): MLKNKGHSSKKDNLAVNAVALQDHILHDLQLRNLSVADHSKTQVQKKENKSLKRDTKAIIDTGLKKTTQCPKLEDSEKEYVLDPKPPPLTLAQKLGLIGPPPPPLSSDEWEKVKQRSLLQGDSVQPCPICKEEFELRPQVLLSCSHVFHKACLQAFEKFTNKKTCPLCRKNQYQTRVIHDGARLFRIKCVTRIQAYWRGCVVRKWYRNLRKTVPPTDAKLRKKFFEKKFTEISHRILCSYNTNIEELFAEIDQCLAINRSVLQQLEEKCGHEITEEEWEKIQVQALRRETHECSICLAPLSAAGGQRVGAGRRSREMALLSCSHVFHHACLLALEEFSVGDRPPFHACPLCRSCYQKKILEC
Excerpt: as §1

UniProt Q9BZR9 = biological target: T8, UniProt Q9BZR9 (Homo sapiens, UniProt Q9BZR9)
T8 construct: 200 μL of lysate containing 5 mg/ml proteome was treated with 2 μL of 100× compound stock; endogenous in cells
T8 sequence (Q9BZR9 1-551): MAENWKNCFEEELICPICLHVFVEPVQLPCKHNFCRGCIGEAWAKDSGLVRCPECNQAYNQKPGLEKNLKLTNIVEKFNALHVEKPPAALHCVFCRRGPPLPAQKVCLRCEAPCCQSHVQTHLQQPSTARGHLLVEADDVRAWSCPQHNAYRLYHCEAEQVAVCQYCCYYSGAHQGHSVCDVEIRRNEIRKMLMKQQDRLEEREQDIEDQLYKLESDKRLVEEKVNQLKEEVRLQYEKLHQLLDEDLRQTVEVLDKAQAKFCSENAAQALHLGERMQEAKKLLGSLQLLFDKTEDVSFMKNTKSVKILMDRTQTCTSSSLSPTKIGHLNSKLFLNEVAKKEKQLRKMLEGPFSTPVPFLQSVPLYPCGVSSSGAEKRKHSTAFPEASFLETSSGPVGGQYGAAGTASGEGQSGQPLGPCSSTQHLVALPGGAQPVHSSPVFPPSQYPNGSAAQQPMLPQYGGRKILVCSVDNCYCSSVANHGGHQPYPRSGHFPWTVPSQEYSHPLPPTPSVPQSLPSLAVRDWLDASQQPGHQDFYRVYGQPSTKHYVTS
Excerpt: as §1

UniProt Q8IWR1 = biological target: T9, UniProt Q8IWR1 (Homo sapiens, UniProt Q8IWR1)
T9 construct: 200 μL of lysate containing 5 mg/ml proteome was treated with 2 μL of 100× compound stock; endogenous in cells
T9 sequence (Q8IWR1 1-403): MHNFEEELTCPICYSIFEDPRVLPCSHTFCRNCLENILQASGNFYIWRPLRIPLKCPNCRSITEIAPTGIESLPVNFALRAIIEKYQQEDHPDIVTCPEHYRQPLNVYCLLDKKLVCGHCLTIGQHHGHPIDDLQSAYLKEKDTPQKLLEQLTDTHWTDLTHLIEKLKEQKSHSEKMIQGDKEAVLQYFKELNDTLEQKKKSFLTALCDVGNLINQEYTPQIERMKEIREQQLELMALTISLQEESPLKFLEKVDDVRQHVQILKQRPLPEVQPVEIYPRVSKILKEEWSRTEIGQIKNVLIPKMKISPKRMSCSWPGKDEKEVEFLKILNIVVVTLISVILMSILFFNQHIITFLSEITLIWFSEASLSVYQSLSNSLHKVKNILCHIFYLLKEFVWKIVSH
Excerpt: as §1

UniProt Q13233 = biological target: T10, UniProt Q13233 (Homo sapiens, UniProt Q13233)
T10 construct: Cells were resuspended in cold PBS on ice and sonicated with a probe sonicator to achieve lysis; endogenous in cells
T10 sequence (Q13233 whole entry, change not shown): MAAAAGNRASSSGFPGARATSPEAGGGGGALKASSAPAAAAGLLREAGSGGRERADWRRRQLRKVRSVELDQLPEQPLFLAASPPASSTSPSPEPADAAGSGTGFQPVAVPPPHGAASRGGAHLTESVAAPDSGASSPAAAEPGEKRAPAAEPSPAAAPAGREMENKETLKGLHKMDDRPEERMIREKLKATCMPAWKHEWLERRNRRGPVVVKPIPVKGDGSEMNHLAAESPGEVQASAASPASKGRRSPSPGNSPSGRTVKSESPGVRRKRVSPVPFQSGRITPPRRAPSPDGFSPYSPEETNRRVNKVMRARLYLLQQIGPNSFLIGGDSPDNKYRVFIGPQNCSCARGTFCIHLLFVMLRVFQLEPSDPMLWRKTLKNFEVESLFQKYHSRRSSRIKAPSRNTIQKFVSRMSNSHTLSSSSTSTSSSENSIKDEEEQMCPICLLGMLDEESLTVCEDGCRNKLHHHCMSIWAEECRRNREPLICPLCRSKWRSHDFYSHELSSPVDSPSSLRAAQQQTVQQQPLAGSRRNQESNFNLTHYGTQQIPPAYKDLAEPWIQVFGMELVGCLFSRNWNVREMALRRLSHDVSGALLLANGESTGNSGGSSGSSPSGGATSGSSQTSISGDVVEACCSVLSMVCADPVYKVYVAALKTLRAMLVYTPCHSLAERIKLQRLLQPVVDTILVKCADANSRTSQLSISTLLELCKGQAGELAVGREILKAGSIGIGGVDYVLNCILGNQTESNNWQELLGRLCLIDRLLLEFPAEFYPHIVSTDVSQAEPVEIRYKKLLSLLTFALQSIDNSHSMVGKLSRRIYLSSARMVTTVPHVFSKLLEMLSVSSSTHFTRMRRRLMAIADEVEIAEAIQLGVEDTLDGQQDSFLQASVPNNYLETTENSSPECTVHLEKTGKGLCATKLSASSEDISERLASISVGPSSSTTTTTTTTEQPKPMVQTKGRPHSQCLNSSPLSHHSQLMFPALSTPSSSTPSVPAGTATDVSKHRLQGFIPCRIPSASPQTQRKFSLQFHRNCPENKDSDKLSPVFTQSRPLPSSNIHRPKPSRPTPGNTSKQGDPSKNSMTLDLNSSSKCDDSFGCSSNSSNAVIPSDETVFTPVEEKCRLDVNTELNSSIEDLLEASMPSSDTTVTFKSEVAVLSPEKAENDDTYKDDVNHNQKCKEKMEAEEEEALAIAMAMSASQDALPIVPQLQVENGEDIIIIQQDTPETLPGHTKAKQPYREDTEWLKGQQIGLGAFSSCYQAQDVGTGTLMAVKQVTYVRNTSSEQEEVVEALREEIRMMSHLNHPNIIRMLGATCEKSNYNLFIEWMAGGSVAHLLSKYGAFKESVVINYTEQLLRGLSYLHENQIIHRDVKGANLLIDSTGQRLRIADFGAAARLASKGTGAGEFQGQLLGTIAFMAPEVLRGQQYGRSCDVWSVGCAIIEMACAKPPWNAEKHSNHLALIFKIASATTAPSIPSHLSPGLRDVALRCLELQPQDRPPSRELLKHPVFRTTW
Excerpt: as §1

UniProt Q9NX47 = biological target: T11, UniProt Q9NX47 (Homo sapiens, UniProt Q9NX47)
T11 construct: Cells were resuspended in cold PBS on ice and sonicated with a probe sonicator to achieve lysis; endogenous in cells
T11 sequence (Q9NX47 whole entry, change not shown): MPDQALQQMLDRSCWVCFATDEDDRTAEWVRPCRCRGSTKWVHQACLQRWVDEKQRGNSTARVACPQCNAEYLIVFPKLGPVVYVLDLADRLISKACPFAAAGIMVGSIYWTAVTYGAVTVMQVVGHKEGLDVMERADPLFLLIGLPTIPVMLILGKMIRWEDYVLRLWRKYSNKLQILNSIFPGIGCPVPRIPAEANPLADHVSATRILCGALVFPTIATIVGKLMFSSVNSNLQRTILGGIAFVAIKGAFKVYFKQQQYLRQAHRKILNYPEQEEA
Excerpt: as §1

UniProt O14543 = biological target: T12, UniProt O14543 (Homo sapiens, UniProt O14543)
T12 construct: 200 μL of lysate containing 5 mg/ml proteome was treated with 2 μL of 100× compound stock; endogenous in cells
T12 sequence (O14543 whole entry, change not shown): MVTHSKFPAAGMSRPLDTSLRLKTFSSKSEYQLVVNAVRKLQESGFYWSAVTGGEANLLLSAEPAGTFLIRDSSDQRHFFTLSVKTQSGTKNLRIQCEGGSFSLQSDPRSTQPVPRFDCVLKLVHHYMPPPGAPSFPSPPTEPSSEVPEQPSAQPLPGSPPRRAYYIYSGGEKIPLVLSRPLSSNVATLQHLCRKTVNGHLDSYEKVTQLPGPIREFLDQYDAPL
Excerpt: as §1

[1] = 500 uM, read-out: percent_inhibition
[2] = read-out: KB05_100 uM_percent_inhibition
[3] = 100 uM, read-out: percent_inhibition
[4] = read-out: KB02_100 uM_percent_inhibition

inhibition at 500 µM (UniProt Q96EH8): 44%
inhibition at 100 µM (UniProt Q6IQ16; read-out: percent_inhibition): 20%
percent_inhibition (UniProt Q6IQ16; 500 uM): 57%
inhibition at 500 µM (UniProt Q6IQ16; [1]): 44%
inhibition at 500 µM (UniProt P36406; read-out: KB05_500 uM_percent_inhibition): 61%
inhibition at 100 µM (UniProt O60683; [2]): 37%
KB05_500 uM_percent_inhibition (UniProt O96028): 79%
inhibition at 100 µM (UniProt Q13829; [3]): 7%
percent_inhibition (UniProt Q9H0A6; 500 uM): 10%
inhibition at 500 µM (UniProt Q9H0A6; [1]): 16%
KB05_100 uM_percent_inhibition (UniProt Q9BZR9; 100 uM): 16%
inhibition at 100 µM (UniProt Q9BZR9; [2]): 10%
inhibition at 100 µM (UniProt Q8IWR1; [2]): 38%
inhibition at 100 µM (UniProt Q13233; read-out: percent inhibition): 31%
Structure (SMILES): C=CC(=O)N(c1ccccc1)c1ccc(Br)cc1 [KB05]

Structure (SMILES): COc1ccc2c(c1)CCCN2C(=O)CCl [KB02]
percent inhibition (UniProt Q96EH8; 500 uM): 54%
inhibition at 500 µM (UniProt Q96EH8): 40%
inhibition at 100 µM (UniProt Q6IQ16; read-out: percent_inhibition): 16%
inhibition at 100 µM (UniProt O60683; [4]): 51%
inhibition at 100 µM (UniProt Q9NX47; read-out: percent inhibition): 7%
percent_inhibition (UniProt Q13829; 100 uM): 4%
inhibition at 100 µM (UniProt Q13829; [3]): 8%
percent_inhibition (UniProt Q13829; 500 uM): 9%
inhibition at 500 µM (UniProt Q13829; [1]): 15%
inhibition at 100 µM (UniProt Q9H0A6; [3]): 44%
inhibition at 500 µM (UniProt Q9H0A6; [1]): 42%
inhibition at 100 µM (UniProt O14543; read-out: percent_inhibition): 40%
inhibition at 100 µM (UniProt Q8IWR1; [4]): 46%
KB02_500 uM_percent_inhibition (UniProt Q8IWR1; 500 uM): 66%
inhibition at 500 µM (UniProt Q8IWR1; 500 uM, read-out: KB02_500 uM_percent_inhibition): 58%

Structure (SMILES): O=C(CCl)Nc1cc(C(F)(F)F)cc(C(F)(F)F)c1 [KBO3]
KB03_500 uM_percent_inhibition (UniProt P36406; 500 uM): 17%
KB03_500 uM_percent_inhibition (UniProt O96028): 78%
percent inhibition (UniProt Q9NX47; 100 uM): 30%
KB03_100 uM_percent_inhibition (UniProt Q9BZR9; 100 uM): 39%
percent_inhibition (UniProt O14543; 100 uM): 91%
percent inhibition (UniProt Q13233; 100 uM): 19%
